# Assays:
# [1] = system: promastigotes of clinical isolate of PKDL strain, BS12 of L. donovani; test: LDH cytotoxicity assay on promastigotes of clinical PKDL isolate BS12; type: cell-based; settings: Leishmania donovani, LDH assay 72 h
# Experimental: Promastigote forms of L. donovani (MHOM/IN/1983/AG83) were cultured at 26°C in M199 (GIBCO, India), pH 7.4, supplemented with 10% (v/v) inactivated fetal bovine serum (FBS, GIBCO, India) and 0.02 mg/ml gentamycin (Life Technologies, USA). The clinical isolate of PKDL, BS12, was obtained as a gift from Prof. Mitali Chatterjee [Department of Pharmacology, Institute of Postgraduate Medical Education and Research (IPGMER), Kolkata, India]. […]
# AG83 strain of L. donovani were exposed to various Gly compound concentrations (100 nM–100 µM) in a 96-well microtiter plate (100 µl/well volume) and were incubated for 72 h at 26°C. […] The percent cytotoxicity of test compounds was calculated by normalizing with amphotericin B as 100%. Further percentage growth inhibition was calculated using the formula: […]
# We further evaluated the effect the Gly2 on the clinical isolate of PKDL strain, BS12 of L. donovani ([Sengupta et al., 2019]). […] Along with Gly2, we also evaluated the cytotoxic effects of 12 compounds on L. donovani promastigotes derived from clinical isolates of PKDL strain at 5 µM ( Supplementary Figure S2 ).
# AG83 promastigotes = test: CFDA-SE promastigote proliferation assay (FACS); type: cell-based, Leishmania donovani; settings: 5 µM
# Experimental: AG83 parasite growth and multiplication were assessed by fluorescence-activated cell sorting and fluorescence microscopy with 6-carboxyfluorescein diacetate succinimidyl ester (CFDA-SE, Life Technologies, USA) as a probe. Promastigotes were washed thrice with PBS. The cells were labeled with CFDA-SE dye and were then incubated at 37°C for 10 min. These cells were then resuspended in ice-cold M199 medium. Furthermore, they were centrifuged at 1,200 g for 10 min (4°C) and resuspended in fresh medium. Cells were treated with the Gly2 and were analyzed through BD FACS DIVA for 3 consecutive replicates after 0, 24, 48, and 72 h, respectively ([Messaritakis et al., 2010]).
# [2] = system: L. donovani promastigotes; test: JC-1 mitochondrial membrane potential in promastigotes; type: cell-based, Leishmania donovani; settings: treated promastigotes vs control, 24 h
# Experimental: Mitochondrial membrane (Δψm) potential was examined using 5,6-dichloro-2-[3-(5,6-dichloro-1,3-diethyl-1,3-dihydro-2H-benzimidazol-2-ylidene)-1propenyl]-1,3-diethyl-,iodide (JC-1 dye) (Life Technologies, USA) as a probe. Treated and untreated groups were incubated for 24 h. Cells were washed with PBS and JC-1 labeled, and samples were analyzed through FACS diva (Beckton-Dickinson, Pharmingen). The approximate fluorescence excitation/emission maxima of 514/529 nm for monomeric form and 585/590 nm for J-aggregate form were used. The labeled cells were also allowed to adhere to glass slides for visualization under fluorescence microscope (Nikon Ti eclipse, USA) ([Shivappagowdar et al., 2019]).
# [3] = system: L. donovani promastigotes; test: Complement-mediated cytolysis of promastigotes by PI uptake (10% NHS); type: cell-based, Leishmania donovani
# Experimental: Parasites with an optimum 10% non-heat-inactivated normal human serum (NHS) were incubated with Gly2 at 5-µM concentration for 15 min. Promastigote lysis was detected by uptake of PI, by use of a FACS Diva flow cytometer (Beckton-Dickinson, Pharmingen), in accordance with the manufacturer’s protocol. Promastigotes were washed for excessive stain removal and filter block for PI red fluorescence, 510–560 nm was used ([Moreno et al., 2010]).
# LdGp63 = target: T1, LdGp63 (Leishmania donovani, UniProt P23223); test: Cellular thermal shift assay (CETSA) in promastigotes; type: binding; settings: 5 µM, 24 h, heated to 80°C; Gp63 destabilized in untreated lysate
# T1 construct: endogenous in cells; host or cells: Leishmania donovani promastigotes (AG83 lab strain per abstract)
# T1 sequence (P23223 88-565): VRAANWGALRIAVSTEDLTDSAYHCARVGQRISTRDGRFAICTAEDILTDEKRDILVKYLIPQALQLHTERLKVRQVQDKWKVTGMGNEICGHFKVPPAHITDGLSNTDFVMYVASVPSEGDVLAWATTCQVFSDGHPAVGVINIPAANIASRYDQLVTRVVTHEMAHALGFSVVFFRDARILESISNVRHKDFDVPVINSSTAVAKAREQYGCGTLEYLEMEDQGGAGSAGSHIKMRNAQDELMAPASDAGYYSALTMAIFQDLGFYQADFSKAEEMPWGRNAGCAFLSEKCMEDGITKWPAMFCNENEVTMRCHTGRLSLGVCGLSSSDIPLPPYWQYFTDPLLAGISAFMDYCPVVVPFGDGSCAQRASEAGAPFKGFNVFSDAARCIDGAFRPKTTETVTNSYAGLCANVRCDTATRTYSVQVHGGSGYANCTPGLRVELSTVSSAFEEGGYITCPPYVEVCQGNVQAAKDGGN
# Experimental: Control cells were incubated with an equal volume of a vehicle. Following incubation, the parasites were washed with PBS to remove excess drug and harvested in 200 μl of a lysis solution (50 mM HEPES, 150 mM NaCl, 1% Triton X-100 and 1% IGEPAL, 1 mM phenylmethyl sulfonyl fluoride). The lysates were centrifuged at 14,000 g for 20 min at 4°C, and supernatants were transferred to new tubes. Furthermore, the protein concentration was measured using the Pierce BCA protein assay kit. After preparation of lysates, 30 μl (0.8 mg/ml) aliquots of the supernatants were heated individually on a Thermomixer compact (Eppendorf) at different temperatures for 7 min and then cooled at room temperature for 3 min. CETSA samples were separated by SDS-PAGE, and immunoblotting was performed as described previously using a mouse polyclonal anti-LdGp63 catalytic domain antibody (1:500) ([Chakrabarti et al., 2021]).
smiles,measurement,setting,value
CC(C)CCOC1O[C@H](CO)[C@@H](O)[C@H](O)[C@H]1O (some centres unmarked) [Gly2],IC50,[1],1970 nM
same,percentage of CFDA-positive cells,AG83 promastigotes; 24 h,81.59%
same,percentage of CFDA-positive cells,AG83 promastigotes; 48 h,74.68%
same,percentage of CFDA-positive cells,AG83 promastigotes; 72 h,68.48%
same,mitochondrial uptake of JC-1 dye (ΔΨm),[2],significantly decreased
same,promastigote death (PI uptake),"[3]; 10% NHS, Gly2 at 5 µM where treated, control in 10% heat-inactivated FBS 0.06%",~ 80%
same,increment in PI uptake,[3]; Gly2 + 10% NHS vs 10% NHS alone,24.65%
same,thermostability of Gp63 in treated lysates (immunoblot),LdGp63,stable at higher temperature

# Source: publication PMC9115111, “Metalloprotease Gp63-Targeting Novel Glycoside Exhibits Potential Antileishmanial Activity” (Frontiers in Cellular and Infection Microbiology, 2022)
